# In patent publication US10925280B2, “Solid agrochemical compositions” (UPL LIMITED, priority 2015, dated 2021):
# How the values were obtained:
# [1] = Physical appearance in open containers at ambient conditions; assay type: physicochemical
# Text: The appearances for the granular compositions prepared according to the present invention were investigated in open containers at ambient conditions.
# (§1) It has been observed that the granular compositions according to the present inventions are dry solids as evidenced by the appearance. […] Further, the granules were appeared as dry solids after 6 months of storage. The inventors of the present invention confirmed the stability of the granules by investigating the weight gain of the compositions and by calculating the relative weight gain with respect to glufosinate salt. The weight gain of the granular compositions according to the present invention were investigated at 30° C. and 60% humidity as per ASTM (1996) method and the results are summarized in the below table (Table 3).
# [2] = Weight gain (uptake of moisture) at 30° C. and 60% humidity as per ASTM (1996) method; assay type: physicochemical
# Text: as §1
# Relative % weight gain of the composition is calculated using the formula given below:
# [formula] [formula] • wherein X is glufosinate ammonium technical
smiles,measurement,setting,value
"CP(=O)(O)CCC(N)C(=O)O (stereo not shown) [Glufosinate ammonium, 2-amino-4-[hydroxy(methyl)phosphinoyl]butyric acid]",Appearance at 0 hrs,[1]; 0 hrs,Dry solid
same,Appearance After 24 hrs,[1]; 24 hrs,Wet solid
same,Appearance After 72 hrs,[1]; 72 hrs,Liquid
same,% weight gain after 24 hrs,[2]; 24 hrs,1.834%
same,Weight of sample after 24 hrs,[2]; 24 hrs,1.0219 g
same,Relative % weight gain after 24 hrs,"[2]; 24 hrs, relative to glufosinate ammonium technical",100%
same,Weight of sample,[2]; start,1.0035 g
